We go through two molecules from US5462956A, “Epibatidine and derivatives, compositions and methods of treating pain” (priority 1994, dated 1995).

Series [1] concerns NIH mice. Nature of the series: hot plate analgesia assay (Eddy and Leimbach), with and without naloxone. The class given is in vivo, mouse. To be noted: for ED50 Dose for Hot Plate Analgesia: mice, sc, hot plate 55° C., reaction times over 60 min. The procedure: 107, 385-393, 1953]. NIH mice were dropped onto a hot plate maintained at 55° C. and the reaction time was determined. The criterion for a reaction was kicking the hind leg, attempting to jump out, or shaking a foot and turning and licking it. Reaction time for each mouse was determined at least twice before and 5, 10, 20, 30, 45 and 60 min after administration of compound.

A short description of series [2]: Nilsen assay of analgetic activity. To be noted: in vivo.
Series [3] has as its system mice. The procedure: The Straub-tail reaction was assayed by a standard procedure [Aceto, M. D., et. al., Brit. J. Pharmacol. 36, 225-239, 1969].
The target of series [4] is opioid-binding sites (Cavia porcellus, UniProt A0ACM8Q262). To be noted: 1 nM [3H]dihydromorphine, guinea pig cerebral tissue. How it is done:
Briefly, cerebral tissue from brains of male Hartley guinea pigs was homogenized in 10 volumes of ice-cold 50 mM Tris-HCl buffer (pH 7.4) for 20 sec. in a Polytron homogenizer at 3000 rpm. After centrifugation at 18,000 G for 10 min., the pellet was reconstructed to the same volume in Tris buffer. […] Samples were chilled to 0° and filtered through glass fiber filters, followed by two washes with 5 ml of ice cold Tris buffer. Radioactivity retained on the filter was determined with a liquid scintillation counter. Nonspecific binding of [^3 H]dihydromorphine was determined in the presence of 100 nM naloxone.

The test system of series [5] is dihydromorphine binding sites. Nature of the series: binding to dihydromorphine binding sites in rodent brain membranes (background statement).

Sequence of opioid-binding sites (A0ACM8Q262 1-400): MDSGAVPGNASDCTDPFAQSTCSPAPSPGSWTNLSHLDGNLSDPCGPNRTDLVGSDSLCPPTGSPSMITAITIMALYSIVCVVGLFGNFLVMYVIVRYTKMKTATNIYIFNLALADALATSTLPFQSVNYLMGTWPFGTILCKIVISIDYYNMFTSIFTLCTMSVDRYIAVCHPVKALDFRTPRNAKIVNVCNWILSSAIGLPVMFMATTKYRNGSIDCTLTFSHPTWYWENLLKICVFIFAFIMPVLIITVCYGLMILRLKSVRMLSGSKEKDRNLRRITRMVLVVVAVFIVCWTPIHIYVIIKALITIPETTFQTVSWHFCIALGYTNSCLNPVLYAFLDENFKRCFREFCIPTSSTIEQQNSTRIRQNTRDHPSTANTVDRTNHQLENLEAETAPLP

For `Clc1ccc(C2CC3CCC2N3)cn1` (stereo not drawn) [Epibatidine], in series [1], the “ED50 Dose for Hot Plate Analgesia” value came to 0.005 mg/kg. Moreover, the “antagonism of the analgesia by the opioid antagonist naloxone (background statement)” value in series [1] (naloxone) was “not antagonized”. In addition, the “Effect of Naloxone (on analgesia)” value in series [1] (naloxone 5 mg/kg sc) was “No effect”. The “potency relative to morphine in a standard analgetic test” value in series [1] (subcutaneously to mice) was “two-hundred fold more potent than morphine”. Moreover, in series [2], the “Analgetic activity in the Nilsen assay” value is reported as “Analgetic activity also was apparent”. The “Straub-tail reaction elicited by isolated alkaloid” value in series [3] (column fractions 108-111, mice) was “elicited the Straub-tail reaction in mice”. Besides, the Straub-tail response entry in series [3] (mice, at higher doses for epibatidine (background statement)) was “marked Straub-tail response”. Moreover, in series [3] (mouse, in vivo), the “dose that elicited a comparable Straub-tail reaction” value amounted to 0.02 mg/kg and the “effect of naloxone on the Straub-tail reaction” value was “only slightly reduced the Straub-tail reaction”. Further, in series [3] (opioid-antagonist naloxone), the “blockade of the Straub-tail response by naloxone (background statement)” value is “not blocked”. Besides, the “activity at opioid-binding sites in words” value in series [4] was “nearly inactive”. Moreover, the IC50 in series [4] (30 min, 25°, pH 7.4) was 8.8 µM. The “affinity for dihydromorphine binding sites” value in series [5] was “very low affinity”.
As to `CN1CC[C@]23c4c5ccc(O)c4O[C@H]2[C@@H](O)C=C[C@H]3[C@H]1C5` [Morphine, reference compound], the “ED50 Dose for Hot Plate Analgesia” value in series [1] is given as 1 mg/kg. Moreover, in series [3] (mouse, in vivo, sc), the “dose required for a greater than 45° arch of tail (Straub-tail reaction)” value worked out at 10 mg/kg.

As a reminder, the IC50 is the midpoint of a concentration-inhibition curve. A lower IC50 goes with inhibition by little substance.
